From ChEMBL document CHEMBL4219227, “Polyprenylated polycyclic acylphloroglucinol: Angiogenesis inhibitor from Garcinia multiflora” (Bioorg Med Chem Lett, 2018)
The source made the active and inactive calls. The calls are words filed in the database; no cut-off is given here.

Experiments:
Assay type in all cases: functional
[1] = tested on: SK-HEP1; experiment: Growth inhibition of human SKHEP1 cells after 48 hrs by SRB assay; conditions: SK-HEP1, 48 h
[2] = species on record: Homo sapiens; experiment: Antiangiogenic activity in human CD34-positive EPC assessed as suppression of cell reorganization at 20 uM after 24 hrs by phase contrast microscopic method
[3] = species on record: Homo sapiens; experiment: Growth inhibition of human CD34-positive EPC at 10 uM after 48 hrs by SRB assay
[4] = Antiangiogenic activity in human CD34-positive EPC assessed as suppression of capillary-like structure formation after 24 hrs by phase contrast microscopic method
[5] = species on record: Homo sapiens; experiment: Antiangiogenic activity in human CD34-positive EPC assessed as suppression of capillary-like structure formation at 20 uM after 24 hrs by phase contrast microscopic method
[6] = tested on: PC-3; experiment: Growth inhibition of human PC3 cells after 48 hrs by SRB assay; conditions: PC-3, 48 h

GI50 [1] [µM] | IC50 [4] [µM] | GI50 [6] [µM] | Structure (SMILES) | Activity [2] | growth inhibition (GI) [3] | Activity [5]
> 30 | 15.7 | 18.2 | C=C(C)[C@@H](CC=C(C)C)C[C@@]12C[C@@H](CC=C(C)C)C(C)(C)[C@]3(C=CC(C)(C)OC3=C(C(=O)c3ccccc3)C1=O)C2=O [GARCIMULTIFLORONE B] | Active | Active | Active
0.011 |  | 0.013 | CC(=O)O[C@H]1C(=O)[C@@]2(C)[C@H]([C@H](OC(=O)c3ccccc3)[C@]3(O)C[C@H](OC(=O)[C@H](O)[C@@H](NC(=O)c4ccccc4)c4ccccc4)C(C)=C1C3(C)C)[C@]1(OC(C)=O)CO[C@@H]1C[C@@H]2O [PACLITAXEL] |  |  | 
4.3 | 14.3 | 6.6 | C=C(C)[C@@H](CC=C(C)C)C[C@]12C[C@@H](CC=C(C)C)C(C)(C)[C@](CC=C(C)C)(C1=O)C(O)=C(C(=O)c1ccccc1)C2=O | Active | Active | Active
> 30 | 16.5 | 24.8 | CC(C)=CCC1=C2OC(C)(C)[C@@H](CC=C(C)C)C[C@@]23C[C@@H](CC=C(C)C)C(C)(C)[C@@](C(=O)c2ccccc2)(C1=O)C3=O [GARCIMULTIFLORONE A] | Active | Active | Active
